Tests used:
[1] = target: T1, hNav1.7 (Homo sapiens (Human), UniProt Q15858); test: Tritiated compound binding to membranes from cells heterologously expressing hNav1.7 and the β1 subunit (LBA); settings: competitive binding vs [3H]compound, membranes with hNav1.7 and β1 subunit; read-out: Nav1.7 LBA EVO IC50
Procedure: Example 39A. Tritiated Compound Binding to Membranes Isolated from Cells that Heterologously Express hNav1.7 and the β1 Subunit
Preparation of membranes containing recombinantly expressed sodium channels: Frozen recombinant cell pellets were thawed on ice and diluted to 4 times the cell pellet weight with ice cold 50 mM Tris HCl, pH 7.4 buffer. The cell suspensions were homogenized on ice using a motorized glass dounce homogeniser. Homogenates were further diluted 8.4 times with ice cold 50 mM Tris HCl, pH 7.4 buffer and then centrifuged at 200×g at 4° C. for 15 min. The supernatants were collected and centrifuged at 10000×g at 4° C. for 50 min. The pellets were then re-suspended in 100 mM NaCl, 20 mM Tris HCl, pH 7.4 buffer containing 1% v/v protease inhibitors (Calbiochem) and re-homogenized on ice. The homogenized membranes were then processed through a syringe equipped with a 26 gauge needle. Protein concentrations were determined by Bradford Assay and the membranes were stored at −80° C.
Saturation experiments. A competitive NaV1.7 inhibitor having a methyl group was tritiated. Three tritiums were incorporated in place of methyl hydrogens to generate [^3H]compound. Binding of this radioligand was performed in 5 mL borosilicate glass test tubes at room temperature. Binding was initiated by adding membranes to increasing concentrations of [^3H]compound in 100 mM NaCl, 20 mM Tris HCl, pH 7.4 buffer containing 0.01% w/v bovine serum albumin (BSA) for 18 h. Non-specific binding was determined in the presence of 1 μM unlabeled compound. After 18 h, the reactants were filtered through GF/C glass fiber filters presoaked in 0.5% w/v polyethylene imine. Filters were washed with 15 mL ice cold 100 mM NaCl, 20 mM Tris HCl, pH7.4 buffer containing 0.25% BSA to separate bound from free ligand. [^3H]compound bound to filters was quantified by liquid scintillation counting.
Binding reactions were performed in 96-well polypropylene plates at room temperature for 18 h. In 360 μL, membranes were incubated with 100 pM [^3H]compound and increasing concentrations of Test Compound. Non-specific binding was defined in the presence of 1 μM unlabeled compound. Reactions were transferred and filtered through 96-well glass fiber/C filter plates presoaked with 0.5% polyethylene imine. The filtered reactions were washed 5 times with 200 μL ice cold buffer containing 0.25% BSA. Bound radioactivity was determined by liquid scintillation counting.
For saturation experiments, non-specific binding was subtracted from total binding to provide specific binding and these values were recalculated in terms of pmol ligand bound per mg protein. Saturation curves were constructed and dissociation constants were calculated using the single site ligand binding model: Beq=(Bmax*X)/(X+Kd), where Beq is the amount of ligand bound at equilibrium, Bmax is the maximum receptor density, Kd is the dissociation constant for the ligand, and X is the free ligand concentration. For competition studies percent inhibition was determined and IC50 values were calculated using a 4 parameter logistic model (% inhibition=(A+((B−A)/(1+((x/C)^D)))) using XLfit, where A and B are the maximal and minimum inhibition respectively, C is the IC50 concentration and D is the (Hill) slope.
Example 39B. Tritiated Compound Binding to Membranes Isolated from Cells that Heterologous Express hNav1.7 and the β1 Subunit
Following the procedure described in Example 39A, and making modifications as required to: centrifuge supernatants at 100000×g instead of 10000×g; re-suspend pellets in a buffer containing 0.01% BSA in addition to 100 mM NaCl, 20 mM Tris HCl, pH 7.4 buffer, and 1% v/v […]; and storing membranes at −80° C. in single use aliquots instead of pooled.
Saturation experiments: Following the procedure described in Example 243A, and making modifications as required to incubate [3H]compound for 3 hours instead of 18 hours. […]

[2] = target: T1, hNav1.7; test: Electrophysiological assay (EP), voltage clamp on Syncropatch 384PE; format: cell-based; settings: CHO cells expressing Nav1.7, holding potential −50 mV, 7.5 min compound incubation; read-out: EP_SP hNav1.7 EVO IC50
Description: Example 39C. Electrophysiological Assay (EP) (In Vitro Assay)
Patch voltage clamp electrophysiology allows for the direct measurement and quantification of block of voltage-gated sodium channels (NaV's), and allows the determination of the time- and voltage-dependence of block which has been interpreted as differential binding to the resting, open, and inactivated states of the sodium channel (Hille, B., Journal of General Physiology (1977), 69: 497-515).
The following voltage clamp electrophysiology studies were performed on representative compounds using cells heterologously expressing Nav1.7 or Nav1.5 channels. cDNAs for Nav1.7 (NM_002977) and Nav1.5 (AC137587) were stably expressed in Chinese Hamstr Ovary (CHO) cells and CHL (Chinese Hamster Lung) cells respectively. Sodium currents were measured in the whole-cell configuration using Syncropatch 384PE (Nanlon Technologies, Germany). 1NPC®-384 chips with custom medium resistance and single hole mode are used. Internal solution consists of (in mM): 110 […], 10 CsCl, 20 EGTA, and 10 Hepes (pH adjusted to 7.2); and external solution contains (in mM): 60 NMDG, 80 NaCl, 4 KCl, 1 MgCl2, 2 CaCl2, 2 D-Glucose monohydrate, 10 Hepes (pH adjusted to 7.4 with NaOH).
After system flushing, testing compounds are dissolved in external solution containing 0.1% Pluronic F-127. The chip is moved into the measuring head and the instrument primes the chip with external and internal solutions. 10 l cells are added to the chip from a cell hotel, and a negative pressure of −50 mBar is applied to form a seal. Following treatment with seal enhancer solution and wash-off with external solution, negative pressure of −250 mbar is applied for 1 second to achieve the whole-cell configuration, followed by three washing steps in external solution. 20 µl of compounds is added to 40 µl in each well (1:3 dilution of compounds), and after mixing, 20 l is removed so the volume is retained at 40 ul. After approximately 13 minutes recordings, 20 µl/well of 2 uM TTX, or 333 uM Tetracaine (for Nav1.5) is added to achieve full block.
For voltage protocol, an holding potential of −50 mV is applied during the whole experiment. A depolarizing step is applied to −10 mV for 10 ms, followed by a hyperpolarization step to −150 mV for 20 ms to allow channel recovery from inactivation. A second depolarizing step is applied from −150 mV to −10 mV for 10 ms, where currents were measured to derive blocking effects of compounds. Inhibition is determined based on 7.5 min of compound incubation.

Q: Which IC50 [1] does the source give for `COc1nc(-c2cccc(C(F)(F)F)c2)c(F)cc1N1C(=O)CO[C@@H]2CN(S(=O)(=O)Nc3ccon3)CC[C@H]21` [Example 21, (4aR,8aR)-1-(5-fluoro-2-methoxy-6-(3-(trifluoromethyl)phenyl)pyridin-3-yl)-N-(isoxazol-3-yl)-2-oxohexahydro-1H-pyrido[3,4-b][1,4]oxazine-6(7H)-sulfonamide] here?
A: 2000 nM

Q: And the IC50 [2]?
A: 47.5 nM

Q: Which results are given for `COc1nc(-c2cccc(C(F)(F)F)c2)c(F)cc1N1C(=O)CO[C@H]2CN(S(=O)(=O)Nc3ccon3)CC[C@@H]21` [Example 22, (4aS,8aS)-1-(5-fluoro-2-methoxy-6-(3-(trifluoromethyl)phenyl)pyridin-3-yl)-N-(isoxazol-3-yl)-2-oxohexahydro-1H-pyrido[3,4-b][1,4]oxazine-6(7H)-sulfonamide]?
A: IC50 [1]: 907 nM; IC50 [2]: 66.8 nM

Q: For `N#Cc1cc(-c2cccc(C(F)(F)F)c2)c(F)cc1N1C(=O)CO[C@@H]2CN(S(=O)(=O)Nc3ccon3)CC[C@H]21` [Example 23, (4aR,8aR)-1-(5-cyano-2-fluoro-3′-(trifluoromethyl)-[1,1′-biphenyl]-4-yl)-N-(isoxazol-3-yl)-2-oxohexahydro-1H-pyrido[3,4-b][1,4]oxazine-6(7H)-sulfonamide], which IC50 [1] is on record?
A: 2000 nM

Q: What about the IC50 [2] of the same compound?
A: 50.1 nM

Q: With `N#Cc1cc(-c2cccc(C(F)(F)F)c2)c(F)cc1N1C(=O)CO[C@H]2CN(S(=O)(=O)Nc3ccon3)CC[C@@H]21` [Example 24, (4aS,8aS)-1-(5-cyano-2-fluoro-3′-(trifluoromethyl)-[1,1′-biphenyl]-4-yl)-N-(isoxazol-3-yl)-2-oxohexahydro-1H-pyrido[3,4-b][1,4]oxazine-6(7H)-sulfonamide] as the compound, how does the IC50 [1] read?
A: 2000 nM

Q: What about the IC50 [2] of the same compound?
A: 237 nM

Q: How did the IC50 [1] turn out when `COc1cc(-c2cccc(C(F)(F)F)c2)c(F)cc1N1CCO[C@@H]2CN(S(=O)(=O)Nc3ccon3)CC[C@H]21` [Example 25, (4aR,8aR)-1-(2-fluoro-5-methoxy-3′-(trifluoromethyl)-[1,1′-biphenyl]-4-yl)-N-(isoxazol-3-yl)hexahydro-1H-pyrido[3,4-b][1,4]oxazine-6(7H)-sulfonamide] was run?
A: 208 nM

Q: And the IC50 [2]?
A: 2.36 nM

Q: For `COc1cc(-c2cccc(C(F)(F)F)c2)c(F)cc1N1CCO[C@H]2CN(S(=O)(=O)Nc3ccon3)CC[C@@H]21` [Example 26, (4aS,8aS)-1-(2-fluoro-5-methoxy-3′-(trifluoromethyl)-[1,1′-biphenyl]-4-yl)-N-(isoxazol-3-yl)hexahydro-1H-pyrido[3,4-b][1,4]oxazine-6(7H)-sulfonamide], which IC50 [1] is on record?
A: 63.6 nM

Q: What about the IC50 [2] of the same compound?
A: 10.6 nM

Q: Which results are given for `COc1cc(-c2cccc(C(F)(F)F)c2)c(F)cc1N1CCO[C@@H]2CN(S(=O)(=O)Nc3ccncn3)CC[C@H]21` [Example 27, (4aR,8aR)-1-(2-fluoro-5-methoxy-3′-(trifluoromethyl)-[1,1′-biphenyl]-4-yl)-N-(pyrimidin-4-yl)hexahydro-1H-pyrido[3,4-b][1,4]oxazine-6(7H)-sulfonamide]?
A: IC50 [1]: 21.2 nM; IC50 [2]: 2.02 nM

Q: For `COc1cc(-c2cccc(C(F)(F)F)c2)c(F)cc1N1CCO[C@H]2CN(S(=O)(=O)Nc3ccncn3)CC[C@@H]21` [Example 28, (4aS,8aS)-1-(2-fluoro-5-methoxy-3′-(trifluoromethyl)-[1,1′-biphenyl]-4-yl)-N-(pyrimidin-4-yl)hexahydro-1H-pyrido[3,4-b][1,4]oxazine-6(7H)-sulfonamide], which IC50 [1] is on record?
A: 26.3 nM

Q: What about the IC50 [2] of the same compound?
A: 2.1 nM

Q: For `COc1cc(-c2cccc(OC(F)(F)F)c2)c(F)cc1N1C(=O)CO[C@@H]2CN(S(=O)(=O)Nc3ccon3)CC[C@H]21` [Example 29, (4aR,8aR)-1-(2-fluoro-5-methoxy-3′-(trifluoromethoxy)-[1,1′-biphenyl]-4-yl)-N-(isoxazol-3-yl)-2-oxohexahydro-1H-pyrido[3,4-b][1,4]oxazine-6(7H)-sulfonamide], which IC50 [1] is on record?
A: 62.3 nM

Q: And the IC50 [2]?
A: 2.21 nM

Q: Which IC50 [1] does the source give for `COc1cc(-c2cccc(OC(F)(F)F)c2)c(F)cc1N1C(=O)CO[C@H]2CN(S(=O)(=O)Nc3ccon3)CC[C@@H]21` [Example 30, (4aS,8aS)-1-(2-fluoro-5-methoxy-3′-(trifluoromethoxy)-[1,1′-biphenyl]-4-yl)-N-(isoxazol-3-yl)-2-oxohexahydro-H-pyrido[3,4-b][1,4]oxazine-6(7H)-sulfonamide] here?
A: 35.6 nM

Q: And the IC50 [2]?
A: 2.35 nM

Q: What does the source list for `COc1cc(-c2cccc(OC(F)(F)F)c2)c(F)cc1N1CCO[C@@H]2CN(S(=O)(=O)Nc3ccon3)CC[C@H]21` [Example 31, (4aR,8aR)-1-(2-fluoro-5-methoxy-3′-(trifluoromethoxy)-[1,1′-biphenyl]-4-yl)-N-(isoxazol-3-yl)hexahydro-H-pyrido[3,4-b][1,4]oxazine-6(7H)-sulfonamide]?
A: IC50 [1]: 128 nM; IC50 [2]: 5.98 nM

Q: With `COc1cc(-c2cccc(OC(F)(F)F)c2)c(F)cc1N1CCO[C@H]2CN(S(=O)(=O)Nc3ccon3)CC[C@@H]21` [Example 32, (4aS,8aS)-1-(2-fluoro-5-methoxy-3′-(trifluoromethoxy)-[1,1′-biphenyl]-4-yl)-N-(isoxazol-3-yl)hexahydro-1H-pyrido[3,4-b][1,4]oxazine-6(7H)-sulfonamide] as the compound, how does the IC50 [1] read?
A: 148 nM

Q: And the IC50 [2]?
A: 10.9 nM

Q: With `COc1cc(-c2cccc(C(F)(F)F)c2)c(F)cc1N1C(=O)OC[C@@H]2CN(S(=O)(=O)Nc3ccon3)CC[C@H]21` [Example 33, (4aR,8aR)-1-(2-fluoro-5-methoxy-3′-(trifluoromethyl)-[1,1′-biphenyl]-4-yl)-N-(isoxazol-3-yl)-2-oxohexahydro-2H-pyrido[4,3-d][1,3]oxazine-6(4H)-sulfonamide] as the compound, how does the IC50 [1] read?
A: 112 nM

Q: And the IC50 [2]?
A: 10.4 nM

Reference: patent US10947251B2, “Therapeutic compounds and methods of use thereof” (GENENTECH, INC., priority 2018, dated 2021)
